In brackets after ≈: the same amount, converted by molar mass. Activity calls are given as the source filed them. No cut-off for these calls is given here.
Legend:
[1] = system: Candida albicans; assay: Antifungal activity against Candida albicans SC5314 assessed as inhibition of fungal growth by CLSI M27-A3 guidelines based method; format: functional
[2] = system: Candida albicans; assay: Antifungal activity against Candida albicans GIM 2.194 assessed as inhibition of fungal growth by CLSI M27-A3 guidelines based method; format: functional
[3] = system: Candida tropicalis; assay: Antifungal activity against Candida tropicalis GIM 2.183 assessed as inhibition of fungal growth by CLSI M27-A3 guidelines based method; format: functional
[4] = system: Candida parapsilosis; assay: Antifungal activity against Candida parapsilosis GIM 2.190 assessed as inhibition of fungal growth by CLSI M27-A3 guidelines based method; format: functional; conditions: Lodderomyces parapsilosis
[5] = system: Nakaseomyces glabratus; assay: Antifungal activity against Candida glabrata assessed as inhibition of fungal growth by CLSI M27-A3 guidelines based method; format: functional
[6] = system: Pichia kudriavzevii; assay: Antifungal activity against Candida krusei GIM 2.1 assessed as inhibition of fungal growth by CLSI M27-A3 guidelines based method; format: functional
[7] = system: Cryptococcus neoformans; assay: Antifungal activity against Cryptococcus neoformans CGMCC 2.3161 assessed as inhibition of fungal growth by CLSI M27-A3 guidelines based method; format: functional
[8] = Metabolic stability in human liver microsomes assessed as half-life preincubated for 10 mins followed by NADPH addition and measured after 60 mins by LC-MS/MS analysis; format: ADME, Microsome; conditions: time 70 min
[9] = Metabolic stability in human liver microsomes assessed as parent compound remaining preincubated for 10 mins followed by NADPH addition and measured after 60 mins by LC-MS/MS analysis; format: ADME, Microsome; conditions: time 70 min, read-out: Stability
[10] = system: Aspergillus fumigatus; assay: Antifungal activity against Aspergillus fumigatus cgmcc 3.7795 assessed as inhibition of fungal growth by CLSI M27-A3 guidelines based method; format: functional
[11] = system: Candida albicans; assay: Antifungal activity against fluconazole-resistant Candida albicans CaR assessed as inhibition of fungal growth by CLSI M27-A3 guidelines based method; format: functional
[12] = system: Candida albicans; assay: Antifungal activity against fluconazole and iodiconazole resistant Candida albicans clinical isolate 17# assessed as inhibition of fungal growth by CLSI M27-A3 guidelines based method; format: functional
[13] = system: Candida albicans; assay: Antifungal activity against fluconazole-resistant Candida albicans clinical isolate 901 assessed as inhibition of fungal growth by CLSI M27-A3 guidelines based method; format: functional
[14] = system: Candida albicans; assay: Antifungal activity against fluconazole-resistant Candida albicans clinical isolate 904 assessed as inhibition of fungal growth by CLSI M27-A3 guidelines based method; format: functional
[15] = system: Candida albicans; assay: Antifungal activity against fluconazole-resistant Candida albicans clinical isolate 632 assessed as inhibition of fungal growth by CLSI M27-A3 guidelines based method; format: functional
[16] = system: Candida albicans; assay: Antifungal activity against fluconazole-resistant Candida albicans clinical isolate 100 assessed as inhibition of fungal growth by CLSI M27-A3 guidelines based method; format: functional
[17] = system: Candida albicans; assay: Antifungal activity against fluconazole-resistant Candida albicans clinical isolate 103 assessed as inhibition of fungal growth by CLSI M27-A3 guidelines based method; format: functional
[18] = system: Candida albicans; assay: Antifungal activity against fluconazole-resistant Candida albicans clinical isolate 311 assessed as inhibition of fungal growth by CLSI M27-A3 guidelines based method; format: functional
[19] = system: Candida albicans; assay: Fungicidal activity against Candida albicans SC5314 incubated for 48 hrs by PDA plate based method; format: functional
[20] = system: Candida albicans; assay: Fungicidal activity against fluconazole and iodiconazole resistant Candida albicans clinical isolate 17# incubated for 48 hrs by PDA plate based method; format: functional
[21] = system: Candida albicans; assay: Fungicidal activity fluconazole and iodiconazole resistant Candida albicans clinical isolate 17# assessed as decrease in number of fungi at 16 microg/ml measured within 24 hrs by time-kill kinetics assay; format: functional, organism-based; conditions: dose 16.0 µg/ml
[22] = system: Candida albicans; assay: Effect on sterol composition in Candida albicans SC5314 assessed as ergosterol content at 4 microg/ml measured after 16 hrs by GC-MS analysis (reference value: 96.96 %); format: functional; conditions: dose 4 µg/ml
[23] = system: Candida albicans; assay: Effect on sterol composition in Candida albicans SC5314 assessed as 14alpha-demethyllanosterol content at 4 microg/ml measured after 16 hrs by GC-MS analysis (reference value: 1.98 %); format: functional; conditions: dose 4 µg/ml
[24] = system: Candida albicans; assay: Effect on sterol composition in Candida albicans SC5314 assessed as obtusifoliol content at 4 microg/ml measured after 16 hrs by GC-MS analysis relative to control; format: functional; conditions: dose 4 µg/ml
[25] = system: Candida albicans; assay: Effect on sterol composition in Candida albicans SC5314 assessed as lanosterol content at 4 microg/ml measured after 16 hrs by GC-MS analysis relative to control; format: functional; conditions: dose 4 µg/ml
[26] = system: Candida albicans; assay: Effect on sterol composition in Candida albicans SC5314 assessed as eburicol content at 4 microg/ml measured after 16 hrs by GC-MS analysis relative to control; format: functional; conditions: dose 4 µg/ml
[27] = system: Candida albicans; assay: Effect on sterol composition in Candida albicans SC5314 assessed as other sterols content at 4 microg/ml measured after 16 hrs by GC-MS analysis (reference value: 1.06 %); format: functional; conditions: dose 4 µg/ml
[28] = system: Candida albicans; assay: Antibiofilm activity against fluconazole-resistant Candida albicans CPCC400616 assessed as inhibition of metabolic activity of biofilm measured after 6 hrs by XTT reduction assay; format: functional
[29] = system: Candida albicans; assay: Antibiofilm activity against fluconazole-resistant Candida albicans CPCC400616 assessed as inhibition of metabolic activity of biofilm measured after 24 hrs by XTT reduction assay; format: functional
[30] = system: Candida albicans; assay: Inhibition of hyphal formation in fluconazole-resistant Candida albicans CPCC400616 assessed as reduction in invasive ability at 2 microg/ml measured after 4 hrs by inverted microscopic analysis; format: functional, organism-based; conditions: dose 2.0 µg/ml
[31] = Cytotoxicity against human NCI-H460 cells assessed as inhibition of cell growth incubated for 72 hrs by MTT assay; format: toxicity, cell-based
[32] = Cytotoxicity against human OVCAR-3 cells assessed as inhibition of cell growth incubated for 72 hrs by MTT assay; format: toxicity, cell-based
[33] = Cytotoxicity against HUVEC cells assessed as inhibition of cell growth incubated for 72 hrs by MTT assay; format: toxicity, cell-based; conditions: human
[34] = Cytotoxicity against HEK293T cells assessed as inhibition of cell growth incubated for 72 hrs by MTT assay; format: toxicity, cell-based, HEK-293T; conditions: human

## CN(Cc1ccc(C#Cc2ccccc2)cc1)CC(O)(Cn1cncn1)c1ccc(F)cc1F (configuration not stated)
[1]
  MIC80: 0.013 µg/mL (≈ 0.0284 µM)
[2]
  MIC80: 0.013 µg/mL (≈ 0.0284 µM)
[3]
  MIC80: 0.013 µg/mL (≈ 0.0284 µM)
[4]
  MIC80: 0.013 µg/mL (≈ 0.0284 µM)
[5]
  MIC80: 0.1 µg/mL (≈ 0.218 µM)
[6]
  MIC80: 0.05 µg/mL (≈ 0.109 µM)
[7]
  MIC80: 0.025 µg/mL (≈ 0.0545 µM)
[8]
  half-life: 4.39 min
[9]
  remaining at 1 h: 0.936%

## OC(Cn1cncn1)(Cn1cncn1)c1ccc(F)cc1F [FLUCONAZOLE]
[1]
  MIC80: 0.25 µg/mL (≈ 0.816 µM)
[2]
  MIC80: 0.5 µg/mL (≈ 1.63 µM)
[3]
  MIC80: 0.25 µg/mL (≈ 0.816 µM)
[4]
  MIC80: 1 µg/mL (≈ 3.27 µM)
[5]
  MIC80: 8 µg/mL (≈ 26.1 µM)
[6]
  MIC80: 8 µg/mL (≈ 26.1 µM)
[7]
  MIC80: 4 µg/mL (≈ 13.1 µM)
[10]
  MIC80: 64 µg/mL (≈ 209 µM)
[11]
  MIC80: > 64 µg/mL
[12]
  MIC80: > 64 µg/mL
[13]
  MIC80: > 64 µg/mL
[14]
  MIC80: > 64 µg/mL
[15]
  MIC80: > 64 µg/mL
[16]
  MIC80: > 64 µg/mL
[17]
  MIC80: > 64 µg/mL
[18]
  MIC80: > 64 µg/mL
[19]
  MFC: > 64 µg/mL
[20]
  MFC: > 64 µg/mL
[21]
  Activity: inactive
[22]
  Activity: 4.57%
[23]
  Activity: 3.03%
[24]
  Activity: 14.37%
[25]
  Activity: 9.3%
[26]
  Activity: 60.09%
[27]
  Activity: 8.64%
[28]
  MIC50: 16 µg/mL (≈ 52.2 µM)
[29]
  MIC50: > 32 µg/mL
[30]
  inhibition: inactive
[31]
  IC50 at 72 h: > 40 µM
[32]
  IC50 at 72 h: > 40 µM
[33]
  IC50 at 72 h: > 40 µM
[34]
  IC50 at 72 h: > 40 µM

## C[C@@H](N(C)Cc1ccc(C#Cc2ccc(C#N)cc2)cc1)[C@](O)(Cn1cncn1)c1ccc(F)cc1F
[1]
  MIC80: 0.006 µg/mL (≈ 0.0121 µM)
[2]
  MIC80: 0.006 µg/mL (≈ 0.0121 µM)
[3]
  MIC80: 0.006 µg/mL (≈ 0.0121 µM)
[4]
  MIC80: 0.006 µg/mL (≈ 0.0121 µM)
[5]
  MIC80: 0.01 µg/mL (≈ 0.0201 µM)
[6]
  MIC80: 0.01 µg/mL (≈ 0.0201 µM)
[7]
  MIC80: 0.006 µg/mL (≈ 0.0121 µM)
[10]
  MIC80: 0.05 µg/mL (≈ 0.1 µM)
[11]
  MIC80: 0.5 µg/mL (≈ 1 µM)
[12]
  MIC80: 0.25 µg/mL (≈ 0.502 µM)
[13]
  MIC80: 8 µg/mL (≈ 16.1 µM)
[14]
  MIC80: 32 µg/mL (≈ 64.3 µM)
[15]
  MIC80: 8 µg/mL (≈ 16.1 µM)
[16]
  MIC80: 16 µg/mL (≈ 32.2 µM)
[17]
  MIC80: 8 µg/mL (≈ 16.1 µM)
[18]
  MIC80: 32 µg/mL (≈ 64.3 µM)

Reference: ChEMBL document CHEMBL6092180 (Eur J Med Chem, 2024)
